According to paper PMC5678437, “A new antagonist for CCR4 attenuates allergic lung inflammation in a mouse model of asthma” (Scientific Reports, 2017):

Target: T1, CXCR3 (Homo sapiens, UniProt P49682)
T1 construct: expressed in transfected cells; host or cells: HEK293; plasmid from Chinese National Human Genome Center
T1 sequence (P49682 1-415 isoform P49682-2): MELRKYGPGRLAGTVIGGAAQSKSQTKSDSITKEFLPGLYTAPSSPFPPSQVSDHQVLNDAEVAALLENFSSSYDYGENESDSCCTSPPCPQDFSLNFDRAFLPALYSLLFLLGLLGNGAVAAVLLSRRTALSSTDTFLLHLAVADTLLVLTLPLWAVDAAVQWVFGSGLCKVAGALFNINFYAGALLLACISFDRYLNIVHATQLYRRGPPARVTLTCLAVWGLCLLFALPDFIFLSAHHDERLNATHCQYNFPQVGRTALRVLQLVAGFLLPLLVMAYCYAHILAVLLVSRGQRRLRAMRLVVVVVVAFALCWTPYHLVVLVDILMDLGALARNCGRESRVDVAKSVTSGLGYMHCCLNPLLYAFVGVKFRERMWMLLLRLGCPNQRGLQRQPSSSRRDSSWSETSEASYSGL
Assay: Chemotaxis assay for receptor specificity, HEK293-CXCR3
Type: cell-based
Details: compound as chemoattractant in lower chamber, 0.2, 1, 5, 25 μM
Description: HEK293 cells were transfected with different chemokine receptors. Compound 8a with DMSO was diluted to 0.2 mM, 1 mM, 5 mM and 25 mM, and then we used RPMI 1640 medium containing 0.1% BSA for dilution. The final concentration is: 0.2 μM, 1 μM, 5 μM and 25 μM. DMSO was also diluted 1000-fold with 0.1% BSA RPMI 1640 medium. Chemokines was also diluted to an appropriate concentration. The dilutions of Compound 8a, 1‰ DMSO, the corresponding chemokines of different receptors and 0.1% BSA RPMI 1640 medium were placed in the lower chambers (27.5 μl/well). The transfected HEK293 cells were resuspended in the same medium at a density of 1 × 10^6 cells/ml and added to the upper chambers (55 μl/well).

chemotaxis effect of the compound on HEK293-CXCR3: didn’t exert chemotaxis effects
SMILES: O=C(C1CCCCN1)N1CCN(c2nc(Cl)cc(NCc3ccc(Cl)cc3Cl)n2)CC1 (stereo not shown) [compound 8a, {4-[4-Chloro-6-(2,4-dichloro-benzylamino)-pyrimidin-2-yl]-piperazin-1-yl}-piperidin-2-yl-methanone]
